Experimental findings from patent US20110034380A1, “COMBINATION OF A SELECTIVE PPAR-GAMMA MODULATOR AND AN INCRETIN FOR THE TREATMENT OF DIABETES AND OBESITY” (priority 2009, published 2011) are described below.

The nature of this data set: Stability of polymorph Form II of the besylate salt. Type of data set: physicochemical. The following applies: exemplary Form II polymorph, solid form. The method, then: In some embodiments, Form II of the besylate salt of compound 101 (2,4-Dichloro-N-[3,5-dichloro-4-(quinolin-3-yloxy)-phenyl]-benzenesulfonamide benzenesulfonate salt) is used. […] In some embodiments, the Form II polymorph can have a melting point between about 230 and 240° C. […] For example, particular Form II polymorphs can have major X-ray powder diffraction pattern peaks at 15, 19, 20.5, 23.5, 24.5, 25, 26.5, 29.5 and 30.5° 2θ using Cu Kα radiation. In certain embodiments, the Form II polymorph can have major X-ray powder diffraction pattern peaks at one, two, three, four, five, six, seven or eight of the X-ray powder diffraction pattern peaks at 15, 19, 20.5, 23.5, 24.5, 25, 26.5, 29.5 and 30.5° 2θ using Cu Kα radiation. In certain embodiments, the Form II polymorph of the invention can have both a melting point between about 230 and 240° C. and major X-ray powder diffraction pattern peaks at one, two, three, four, five, six, seven or eight of the X-ray powder diffraction pattern peaks at 15, 19, 20.5, 23.5, 24.5, 25, 26.5, 29.5 and 30.5° 2θ using Cu Kα radiation. In further embodiments, the Form II polymorph can have major infrared absorbance peaks at one, two, three, four, or five of the infrared absorbance peaks at 1573, 1469, 1459, 912, and 859 cm^−1.

Take `O=S(=O)(Nc1cc(Cl)c(Oc2cnc3ccccc3c2)c(Cl)c1)c1ccc(Cl)cc1Cl.O=S(=O)(O)c1ccccc1` [2,4-Dichloro-N-[3,5-dichloro-4-(quinolin-3-yloxy)-phenyl]-benzenesulfonamide benzenesulfonate salt]: the “stability of the polymorph” value is reported as “surprising stability”.
